The text below walks through data of patent publication US8846643B2, “Phosphonates with reduced toxicity for treatment of viral infections” (The Regents of the University of California, priority 2010, dated 2014).

Data set [1] deals with Vaccinia. In words: microbe, parasite or virus in culture. Format: cell-based. As to conditions: Orthopoxvirus vaccinia.
The nature of data set [2]: cytotoxicity (CC50) in HCV replicon cells / Huh 7.5 liver cells. As to conditions: human. (In general: Replicon systems follow genome replication, usually without infectious particles.)
Another data set relates to Huh 7.5 cells. The data set is described as above. As to conditions: cytotoxicity in replicon cells.
Data set [3] in a line: cytotoxicity in human PBMCs.
Data set [4] relates to HIV-1. The data set can be described thus: microbe, parasite or virus in culture. As to conditions: Human immunodeficiency virus 1, MT2.
In data set [5] the test system is HCMV. In words: antiviral activity against HCMV, plaque reduction assay in HFF cells. Format: cell-based, human cytomegalovirus. As to conditions: Human betaherpesvirus 5, HFF, read-out: EC50 (μM) HCMV. (In general: In a plaque reduction assay, fewer plaques than in the control indicate reduced infectivity or spread.)
The test system of a further data set is HIV-1NL43. In words: HIV-1 replication in human peripheral blood mononuclear cells. Format: cell-based.
Data set [6] has as its system HCV genotype 2a replicon (JFH-1). In words: anti-HCV activity in genotype 2a replicon (JFH-1). Format: cell-based, hepatitis C virus. As to conditions: Hepatitis C virus, read-out: EC50 (μM) JFH-1 (2a).
Data set [7] has as its system HCV genotype 1b replicon (BM4-5). The data set can be described thus: anti-HCV activity in genotype 1b replicon (BM4-5). As to conditions: for EC50: Hepatitis C virus, BM4-5, read-out: EC50 (μM) BM4-5(1b). Format: cell-based, hepatitis C virus.
For data set [8], the system named is Cowpox. In words: organism not typed. Format: cell-based. As to conditions: read-out: EC50 (μM) Cowpox.
A further data set in a line: in vitro. As to conditions: human, HFF fibroblasts.
A further data set concerns HSV-1. In words: antiviral activity against HSV-1, plaque reduction assay in HFF cells. As to conditions: Human alphaherpesvirus 1, HFF, read-out: EC50 (μM) HSV-1. Format: cell-based, herpes simplex virus, type 1.
Data set [9] has as its system HIV-1. As to conditions: HIV-1 infected MT-2 cells.
Another data set has as its system MT-2 cells. In words: cytotoxicity in MT-2 cells. As to conditions: MT-2 cells.
A short description of data set [10]: cytotoxicity in MT-2 cells. As to conditions: human.
In data set [11] the test system is Vaccinia. As to conditions: reported previously; read-out: EC50 for vaccinia inhibition; cited from earlier work.
Data set [12] concerns Cowpox. As to conditions: data from Beadle et al.; cited from earlier work.
The test system of data set [13] is HCMV. As to conditions: data from Beadle et al.; cited from earlier work.

Like-named read-outs stand apart in the source and are kept apart here. A value given as a limit tells only on which side of the number the result lay.

As for `CCCCCCCCCCCCCCCCCCOCCOP(=O)(O)CO[C@H](COC)Cn1cnc2c(N)ncnc21` [Cmpd 15, Octadecyloxyethyl (S)-9-[(3-methoxy-2-phosphonomethoxy)propyl]adenine], the EC50 in the data set with Vaccinia [1] (read-out: EC50 (μM) Vaccinia) is 18.3 ± 2.4 µM; in the data set on Vaccinia [1] (read-out: EC50 for vaccinia inhibition), 18.3 µM; in the data set on HIV-1 [4] it was 0.03 µM; in the data set with HCMV [5], 1.55 ± 0.4 µM; in the data set with HIV-1NL43 (Human immunodeficiency virus 1, PBMC, HIV-1NL43 in human PBMCs), about 0.005 µM; in data set [6], 2.38 ± 1.09 µM. Also, the values for the EC50 (in data set [7]; with Cowpox [8]; in the data set with HSV-1) were 1.43 ± 0.38 µM, over 20 µM and 45.7 ± 10.1 µM, respectively. Further, the CC50 in [2] (Huh 7.5 liver cells) was over 150 µM; with Huh 7.5 cells, over 150 µM; in data set [3], over 10 µM; in “in vitro”, 23.8 ± 2.6 µM. For the same molecule, in data set [7] (HCV replication in vitro), the “anti-HCV activity (in words)” value was “potent inhibitory activity”. The “anti-HIV activity (in words)” value in the data set with HIV-1 [9] was “potent inhibitory activity”.
Consider `CCCCCCCCCCCCCCCCCCOCCOP(=O)(O)CO[C@H](CO)Cn1cnc2c(N)ncnc21` [Cmpd 1, octadecyloxyethyl 9-(S)-[3-hydroxy-2-(phosphonomethoxy)propyl]adenine, reference compound], for which the CC50 in the data set on MT-2 cells turned out to be 0.033 µM; in [10], 0.03 ± 0.02 µM; in data set [2] it was 35.6 µM; in “in vitro”, 0.58 ± 0.3 µM. The EC50 with Vaccinia [11] is 0.02 µM; in the data set on HIV-1 [4] it was 0.0001 µM; in the data set on Cowpox [12], 0.05 ± 0.04 µM; in data set [6] it was 1.65 ± 0.33 µM; in [7], 1.55 ± 0.5 µM; with HCMV [13], 0.003 ± 0.001 µM. Besides, the “activity against HIV-1 in human PBMCs (in words)” value in the data set with HIV-1NL43 (HIV-1 infected human PBMCs) is “highly active and selective”.

One may read the EC50 as the midpoint of the concentration-response curve.
